Several values for one entry are separate records, joined by “and”; a condition that tells them apart may be missing. Identical values can stand only once.
These compounds were tested against CDK2 (human) (UniProt P24941) (assay: Enzyme Assay).
In the case of `Cc1ccc(CN2CCC(Nc3nc(N[C@H]4CC[C@H](N)CC4)nc4c3ncn4C3CCCC3)CC2)cc1`, the IC50 is reported as 170 nM and 230 nM.
`N[C@H]1CC[C@H](Nc2nc(NC3CCN(Cc4cc(F)ccc4F)CC3)c3ncn(C4CCCC4)c3n2)CC1` was tested, and the IC50 was 670 nM and 220 nM and 510 nM.
`N[C@H]1CC[C@H](Nc2nc(NC3CCN(Cc4ccc(F)cc4)CC3)c3ncn(C4CCCC4)c3n2)CC1` gave an IC50 of 1700 nM.
For `COc1ccccc1CN1CCC(Nc2nc(N[C@H]3CC[C@H](N)CC3)nc3c2ncn3C2CCCC2)CC1`, the IC50 was 240 nM and 110 nM and 80 nM.
With `COc1cccc(CN2CCC(Nc3nc(N[C@H]4CC[C@H](N)CC4)nc4c3ncn4C3CCCC3)CC2)c1` the IC50 was 140 nM and 300 nM and 340 nM.
`Cc1ccc(CN2CCC(Nc3nc(N[C@H]4CC[C@H](N)CC4)nc4c3ncn4C3CCCC3)CC2)cc1Cl` was tested, and the IC50 was 120 nM and 320 nM.
`N[C@H]1CC[C@H](Nc2nc(Nc3ccccc3)c3ncn(C4CCCC4)c3n2)CC1` showed an IC50 of 5.4 nM.

From the Kinase Knowledgebase extract (Sharma et al. 2016)
